Patent US20050154537A1, “Methods, program products, and systems for single and multi-agent dosing and other related methods” (priority 2003, published 2005)

How the values were obtained:
Format in all cases: in vivo
Platelets = experiment: Lookup table: marker validity (nadir) window, Platelets; conditions: days elapsed between current dose and marker; for Platelets LL: lower limit of nadir range; for Platelets UL: upper limit of nadir range
From the text: (§1) A lookup table has been constructed (see above example), in the form of a table, to represent the relationship of each trial Agent and its qualified Clinical Markers. This table includes information regarding the Maximum Dose and the Inverse Marker Applicability for each Agent. The gray cells on the Cycle Dose Modifier indicate these values.
(§2) The table also includes information regarding the nadir of applicability for each Agent—Marker combination. The range, in days and indicated as the Lower Limit and Upper limit, has been determined by calculating a percentage (20%) above and below the true nadir value when only a single value is known. Otherwise, the upper and lower nadir values are used. […] The values of Upper and Lower limits is shown as a property of the Association between Markers and Agents. The Relevancy of a Marker can be computed using the lookup table by comparing the number of days elapsed between the date of the application of the current dose and the date on which the Marker was taken to the upper and lower values for that Agent Marker Association. If the elapsed days are greater than or equal to the lower limit and less than or equal to the upper limit, then the calculations provided by the Cycle Dose Modifier are said to be relevant and thereby applicable as indicated in the yellow Marker Validity cell. The Relevancy of Cycle Dose Modifier Calculations for Agent 1 is based on the Validity of Marker for Agent 1 calculated by: =IF(and((($B13−B6)>=VLOOKUP(B$3,Validity!$A$3:$K$8,10)),((B$13−B6)<=VLOOKUP(B$3,Validity!$A$3:$K$8,11))),“valid”,“invalid”)

Neutrophil Count (ANC) = experiment: Lookup table: marker validity (nadir) window, Neutrophil Count (ANC); conditions: days elapsed between current dose and marker; for Neutrophil Count (ANC) LL: lower limit of nadir range; for Neutrophil Count (ANC) UL: upper limit of nadir range
From the text: as §1, §2

Hemoglobin (Hgb) = experiment: Lookup table: marker validity (nadir) window, Hemoglobin (Hgb); conditions: days elapsed between current dose and marker; for Hemoglobin (Hgb) LL: lower limit of nadir range; for Hemoglobin (Hgb) UL: upper limit of nadir range
From the text: as §1, §2

INR = experiment: Single agent cycle dose modifier, warfarin sodium patient example; conditions: for Current Level of Efficacy/CLTE: current cycle total dose 57, dose Oct. 21, marker Oct. 26, 2004; for Previous Level of Efficacy/PLTE: previous cycle total dose 60, seven-day cycle
From the text: Warfarin Sodium (coumadin) is used in this example as a single agent. Table 1 illustrates a method of revising a drug dose in treating a patient with one pharamcologic […] modality to optimize pharmacologic outcome and to reduce the risk of an adverse drug event while assessing the clinical relevancy and validity of the measured surrogate marker.
In Table 1, Previous Cycle Total Dose (PCTD) is a value directly entered without new calculation. It is the cumulative amount of the agent administered during the previous treatment cycle as defined by the total amount of drug given over a fixed period of time, such as in chemotherapy, the total amount, e.g., mg/m^2, administered throughout the defined regimen period. In this single agent therapy example for chronic disease management, that is, prevention of venous thrombosis with warfarin sodium, the cycle becomes the total amount of warfarin sodium, in milligrams, administered over a seven-day period. The period is determined when the modifier is constructed.
Previous Level of Toxicity-Efficacy (PLTE) is a value directly entered such as from a lab report. It is the numerical value of a marker of toxicity or efficacy reported at the previous dose cycle adjustment (evaluated at a specified elapsed time sufficient to capture the nadir of the dose effect). The surrogate marker is selected when the dose modifier is constructed.
Current Level of Toxicity-Efficacy (CLTE) is also a value directly entered such as from a lab report. It is the numerical value of the marker of toxicity or efficacy reported with the current dose cycle. The surrogate marker is that value that illustrates the expression of the toxicity or efficacy of the agent on a specific and pre-selected value determined when the dose modifier is constructed. The value is selected based upon the agent, its pharmacologic properties and the disease condition under treatment. The confidence or validity of the marker is based upon its maturity of effect in that a nadir or cycle of effect is dynamic and may vary based upon the time span between receipt of the agent and sampling of the value. Therefore the value may be valid or invalid based upon this timing factor. If invalid, then the dose adjustment cannot be made. If valid, then the value is fully appreciated and the dose modification can be calculated. The surrogate marker is selected when the dose modifier is constructed.
Expected Current Level (ECL) is a comparative operator used to illustrate the mathematical expectation of the patient's response to the actual patient response to classify their individual response characteristics. […]

LDL [1] = experiment: Non-Pharm Example 1: doublet Lipitor and aerobics, LDL marker
From the text: (§3) Efficacy/Toxicity Determinant Agent 2 (Gemzar) (ETD2) is a value determined by the prescriber. Set at an initial value of 1, this value is then adjusted based upon actual case scenarios with a full data set to adjust the value to identify the contribution to the toxicity or efficacy until the actual value is achieved. It can be used to modify dose based upon non-pharmacologic effects such as diet, exercise and activity as determined by the prescriber. A non-pharmacologic two-part combination therapy example could include a cholesterol lowering agent and exercise or cholesterol lowering agent and a restrictive diet. In place of dose the exercise value would be measured in ‘METS’ (Metabolic Equivalent of oxygen consumption) or the dietary prescription in calories or grams of fat or cholesterol.
Doublet Agent One: Pharmacologic, Agent Two:Non-Pharmacologic (Exercise)

LDL [2] = experiment: Non-Pharm Example 2: triplet Lipitor, aerobics and diet, LDL marker
From the text: as §3, with “Set” for “Efficacy/Toxicity Determinant Agent 2 (Gemzar) (ETD2) is a value determined by the prescriber. Set”, “three-part” for “two-part”, “agent,” for “agent and”, “exercise” for “exercise or cholesterol lowering agent”, “of” for “of fat or”
Triplet, Agent One: Pharmacologic, Agent Two: Non-Pharmacologic (Exercise), Agent Three: Diet (Grams of Cholesterol)

SMILES	Platelets LL (Platelets)	Platelets UL (Platelets)	Neutrophil Count (ANC) LL (Neutrophil Count (ANC))	Neutrophil Count (ANC) UL (Neutrophil Count (ANC))	Hemoglobin (Hgb) LL (Hemoglobin (Hgb))	Hemoglobin (Hgb) UL (Hemoglobin (Hgb))	Current Level of Efficacy/CLTE (INR; Comparison Cycle column)	Previous Level of Efficacy/PLTE (INR; Comparison Cycle column)	Current Level of Efficacy/CLTE (INR; Current Cycle column)	Previous Level of Efficacy/PLTE (INR; Current Cycle column)	Current Level of Efficacy/CLTEM1 (LDL [1]; current cycle Lipitor 280 with aerobics 168/week, marker Dec. 05, 2004)	Previous Level of Efficacy/PLTEM1 (LDL [1]; previous cycle Lipitor 210 with aerobics 140/week)	Current Level of Efficacy CLTEM1 (LDL [2]; current cycle Lipitor 300.00 with aerobics 168/week and diet 182/week, marker Dec. 05, 2004)	Previous Level of/PLTEM1 (LDL [2]; previous cycle Lipitor 220.00 with aerobics 140/week and diet 210/week)
N.N.[Cl][Pt][Cl] [Cisplatin]	18 days	23 days	18 days	23 days	18 days	23 days	–	–	–	–	–	–	–	–
N.N.O=C([O-])C1(C(=O)[O-])CCC1.[Pt+2] [Carboplatin]	17 days	25 days	17 days	25 days	14 days	21 days	–	–	–	–	–	–	–	–
CC(=O)CC(c1ccccc1)c1c(O)c2ccccc2oc1=O (centres unmarked) [Warfarin Sodium]	–	–	–	–	–	–	3.80	4.50	3.80	4.50	–	–	–	–
CC(C)c1c(C(=O)Nc2ccccc2)c(-c2ccccc2)c(-c2ccc(F)cc2)n1CC[C@@H](O)C[C@@H](O)CC(=O)O [Lipitor]	–	–	–	–	–	–	–	–	–	–	120	150	122	140
Nc1ccn([C@@H]2O[C@H](CO)[C@@H](O)C2(F)F)c(=O)n1 [Gemzar]	7 days	10 days	7 days	10 days	7 days	10 days	–	–	–	–	–	–	–	–
CC(=O)O[C@@]12CO[C@@H]1C[C@H](O)[C@@]1(C)C(=O)[C@H](O)C3=C(C)[C@@H](OC(=O)[C@H](O)[C@@H](NC(=O)OC(C)(C)C)c4ccccc4)C[C@@](O)([C@@H](OC(=O)c4ccccc4)[C@H]21)C3(C)C [Taxotere]	6 days	8 days	6 days	8 days	8 days	11 days	–	–	–	–	–	–	–	–
